Measurements taken from PubChem BioAssay AID330 (DTP/NCI, 2004).
Where “and” joins values, the source holds several entries; their conditions need not be identical. Equal values may be shown once. Toxic doses and inconclusive results are not listed. The calls were made as follows: active = survival T/C of 150% or more; inactive = T/C below 125% in these data.

Tested on: P388 leukemia ip, CD2F1 mice, survival T/C
Assay: NCI In Vivo Anticancer Drug Screen. Data for tumor model P388 Leukemia (intraperitoneal) in CD2F1 (CDF1) mice
Conditions: endpoint: median survival time, higher = longer survival
Method in brief: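 Mice carrying the transplanted tumor received test compound or vehicle. Survival was recorded in each group, and the value is the treated-group measurement divided by that of the vehicle-treated control group.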

[1] = dose: 2.5 mg/kg/injection, schedule: Q01DX009 (ip), vehicle: saline with Tween-80
[2] = dose: 60.0 mg/kg/injection, schedule: Q01DX005 (ip), vehicle: saline with Tween-80
[3] = dose: 120.0 mg/kg/injection, schedule: Q01DX005 (ip), vehicle: saline with Tween-80
[4] = dose: 240.0 mg/kg/injection, schedule: Q01DX005 (ip), vehicle: saline with Tween-80

Measured: T/C

CCN(CC)CCCC(C)Nc1cc(C)nc(Nc2nc3cc(Cl)c(Cl)cc3[nH]2)n1 (stereo not given)
inactive: [1] 100 % of control | dose: 5.0 mg/kg/injection, schedule: Q01DX009 (ip), vehicle: saline with Tween-80 90 % of control | dose: 10.0 mg/kg/injection, schedule: Q01DX009 (ip), vehicle: saline with Tween-80 100 % of control

BrC1C2CC/C=C\CCC12 (stereo not given)
inactive: [2] 100 % of control | [3] 104 % of control | [4] 104 % of control

COC1=C(N)C(=O)c2nc(-c3nc(C(=O)O)c(C)c(-c4ccc(OC)c(OC)c4O)c3N)ccc2C1=O
inactive: dose: 0.01 mg/kg/injection, schedule: Q01DX009 (ip), vehicle: other 93 % of control | dose: 0.01 mg/kg/injection, schedule: Q## X024 (ip), vehicle: other 110 % of control | dose: 0.02 mg/kg/injection, schedule: Q01DX009 (ip), vehicle: DMSO 101 % of control | dose: 0.02 mg/kg/injection, schedule: Q## X016 (ip), vehicle: other 110 % of control | dose: 0.02 mg/kg/injection, schedule: Q## X024 (ip), vehicle: other 100 % of control | dose: 0.03 mg/kg/injection, schedule: Q01DX009 (ip), vehicle: distilled water + Tween-80 117 % of control and 97 % of control | dose: 0.03 mg/kg/injection, schedule: Q01DX009 (ip), vehicle: other 95 % of control | dose: 0.04 mg/kg/injection, schedule: Q01DX009 (ip), vehicle: DMSO 123 % of control | dose: 0.05 mg/kg/injection, schedule: Q01DX001 (ip), vehicle: other 120 % of control | dose: 0.05 mg/kg/injection, schedule: Q01DX009 (ip), vehicle: DMSO 119 % of control | dose: 0.05 mg/kg/injection, schedule: Q## X008 (ip), vehicle: other 120 % of control | dose: 0.05 mg/kg/injection, schedule: Q## X016 (ip), vehicle: other 110 % of control | dose: 0.05 mg/kg/injection, schedule: Q## X024 (ip), vehicle: other 110 % of control | dose: 0.06 mg/kg/injection, schedule: Q01DX009 (ip), vehicle: DMSO 124 % of control | dose: 0.08 mg/kg/injection, schedule: Q01DX009 (ip), vehicle: DMSO 110 % of control | dose: 0.1 mg/kg/injection, schedule: Q01DX001 (ip), vehicle: other 120 % of control | dose: 0.1 mg/kg/injection, schedule: Q01DX009 (oral), vehicle: other 110 % of control | dose: 0.1 mg/kg/injection, schedule: Q## X008 (ip), vehicle: other 120 % of control | dose: 0.1 mg/kg/injection, schedule: Q## X016 (ip), vehicle: other 110 % of control | dose: 0.12 mg/kg/injection, schedule: Q01DX009 (ip), vehicle: other 120 % of control | dose: 0.15 mg/kg/injection, schedule: Q01DX009 (ip), vehicle: dioxane 123 % of control | dose: 0.16 mg/kg/injection, schedule: Q01DX009 (ip), vehicle: distilled water + Tween-80 123 % of control | dose: 0.16 mg/kg/injection, schedule: Q01DX009 (ip), vehicle: other 102 % of control and 103 % of control | dose: 0.2 mg/kg/injection, schedule: Q01DX001 (ip), vehicle: other 120 % of control | dose: 0.2 mg/kg/injection, schedule: Q01DX009 (oral), vehicle: other 110 % of control | dose: 0.2 mg/kg/injection, schedule: Q## X008 (ip), vehicle: other 120 % of control | dose: 0.2 mg/kg/injection, schedule: Q## X016 (ip), vehicle: other 120 % of control | dose: 0.32 mg/kg/injection, schedule: Q01DX009 (ip), vehicle: distilled water + Tween-80 101 % of control and 94 % of control | dose: 0.4 mg/kg/injection, schedule: Q01DX009 (oral), vehicle: other 110 % of control | dose: 0.8 mg/kg/injection, schedule: Q01DX001 (oral), vehicle: other 100 % of control | dose: 0.8 mg/kg/injection, schedule: Q01DX009 (oral), vehicle: other 100 % of control | dose: 1.6 mg/kg/injection, schedule: Q01DX001 (oral), vehicle: other 100 % of control | [1] 95 % of control | dose: 3.2 mg/kg/injection, schedule: Q01DX001 (oral), vehicle: other 90 % of control | dose: 12.5 mg/kg/injection, schedule: Q01DX009 (ip), vehicle: distilled water + Tween-80 103 % of control | dose: 25.0 mg/kg/injection, schedule: Q01DX009 (ip), vehicle: distilled water + Tween-80 110 % of control | dose: 50.0 mg/kg/injection, schedule: Q01DX009 (ip), vehicle: distilled water + Tween-80 119 % of control | dose: 200.0 mg/kg/injection, schedule: Q01DX009 (ip), vehicle: distilled water + Tween-80 119 % of control | dose: 25.0 micrograms/kg/injection, schedule: Q01DX009 (ip), vehicle: other 120 % of control | dose: 400.0 micrograms/kg/injection, schedule: Q01DX009 (ip), vehicle: other 114 % of control

Cc1cc2c3c(cccc3c1)C(=O)c1ccccc1-2
inactive: dose: 50.0 mg/kg/injection, schedule: Q01DX005 (ip), vehicle: saline with Tween-80 102 % of control | dose: 100.0 mg/kg/injection, schedule: Q01DX005 (ip), vehicle: saline with Tween-80 102 % of control | dose: 200.0 mg/kg/injection, schedule: Q01DX005 (ip), vehicle: saline with Tween-80 93 % of control

Cn1cnc([N+](=O)[O-])c1Sc1ccncc1S(N)(=O)=O
inactive: dose: 50.0 mg/kg/injection, schedule: Q01DX005 (ip), vehicle: Klucel (hydroxypropylcellulose) (HPC) 118 % of control | dose: 100.0 mg/kg/injection, schedule: Q01DX005 (ip), vehicle: Klucel (hydroxypropylcellulose) (HPC) 102 % of control | dose: 200.0 mg/kg/injection, schedule: Q01DX005 (ip), vehicle: Klucel (hydroxypropylcellulose) (HPC) 108 % of control

CCOC(=O)Cc1ccc(-c2csc(Nc3ccc(Cl)cc3)n2)cc1
inactive: dose: 100.0 mg/kg/injection, schedule: Q04DX003 (ip), vehicle: Klucel (hydroxypropylcellulose) (HPC) 96 % of control | dose: 200.0 mg/kg/injection, schedule: Q04DX003 (ip), vehicle: Klucel (hydroxypropylcellulose) (HPC) 104 % of control | dose: 400.0 mg/kg/injection, schedule: Q04DX003 (ip), vehicle: Klucel (hydroxypropylcellulose) (HPC) 106 % of control

CC(C)CCNc1ncnc2[nH]ncc12
inactive: dose: 25.0 mg/kg/injection, schedule: Q04DX003 (ip), vehicle: saline with Tween-80 95 % of control | dose: 50.0 mg/kg/injection, schedule: Q04DX003 (ip), vehicle: saline with Tween-80 95 % of control | dose: 100.0 mg/kg/injection, schedule: Q04DX003 (ip), vehicle: saline with Tween-80 100 % of control

CC(=O)OC1CC2(C)CCC3C(C)C(=O)OC3C2C(C)C1=O (stereo not given)
inactive: dose: 100.0 mg/kg/injection, schedule: Q04DX002 (ip), vehicle: saline with Tween-80 100 % of control | dose: 200.0 mg/kg/injection, schedule: Q04DX002 (ip), vehicle: saline with Tween-80 100 % of control | dose: 400.0 mg/kg/injection, schedule: Q04DX002 (ip), vehicle: saline with Tween-80 99 % of control and 100 % of control

Nc1ncnc2c1c1c(=O)[nH]c(=O)[nH]c1n2C1OC(CO)C(O)C1O (stereo not given)
inactive: dose: 25.0 mg/kg/injection, schedule: Q01DX005 (ip), vehicle: distilled water + Tween-80 113 % of control | dose: 50.0 mg/kg/injection, schedule: Q01DX005 (ip), vehicle: distilled water + Tween-80 110 % of control | dose: 100.0 mg/kg/injection, schedule: Q01DX005 (ip), vehicle: distilled water + Tween-80 111 % of control | dose: 200.0 mg/kg/injection, schedule: Q01DX005 (ip), vehicle: distilled water + Tween-80 111 % of control | dose: 400.0 mg/kg/injection, schedule: Q01DX005 (ip), vehicle: distilled water + Tween-80 121 % of control

O=C1c2cc(O)c(O)cc2C(=O)c2cc3c(cc21)OCO3
inactive: [2] 97 % of control | [3] 90 % of control | [4] 90 % of control

Nc1nccn2cnnc12
inactive: dose: 100.0 mg/kg/injection, schedule: Q01DX001 (ip), vehicle: Klucel (hydroxypropylcellulose) (HPC) 100 % of control | dose: 200.0 mg/kg/injection, schedule: Q01DX001 (ip), vehicle: Klucel (hydroxypropylcellulose) (HPC) 104 % of control | dose: 400.0 mg/kg/injection, schedule: Q01DX001 (ip), vehicle: Klucel (hydroxypropylcellulose) (HPC) 100 % of control

O=S(=O)(CS(=O)(=O)c1ccc(Br)cc1)c1ccc(Br)cc1
inactive: dose: 60.0 mg/kg/injection, schedule: Q01DX005 (ip), vehicle: Klucel (hydroxypropylcellulose) (HPC) 102 % of control | dose: 120.0 mg/kg/injection, schedule: Q01DX005 (ip), vehicle: Klucel (hydroxypropylcellulose) (HPC) 107 % of control | dose: 240.0 mg/kg/injection, schedule: Q01DX005 (ip), vehicle: Klucel (hydroxypropylcellulose) (HPC) 102 % of control
